Columns and labels:
PIK3CD (Human) [1] = molecular target: PIK3CD (Human) (UniProt O00329); assay: Enzyme Assay
PIK3CA (human) [2] = molecular target: PIK3CA (human) (UniProt P42336); assay: Enzyme Assay
PIK3CG (human) [3] = molecular target: PIK3CG (human) (UniProt P48736); assay: Enzyme Assay
PIK3CD (Human) [4] = molecular target: PIK3CD (Human) (UniProt O00329); assay: Cell-Based Assay; details: rat-1
PIK3CA (human) [5] = molecular target: PIK3CA (human) (UniProt P42336); assay: Cell-Based Assay; details: rat-1
PIK3CG (human) [6] = molecular target: PIK3CG (human) (UniProt P48736); assay: Cell-Based Assay; details: u937

Sequence of PIK3CA (human) (P42336 whole entry, looked up): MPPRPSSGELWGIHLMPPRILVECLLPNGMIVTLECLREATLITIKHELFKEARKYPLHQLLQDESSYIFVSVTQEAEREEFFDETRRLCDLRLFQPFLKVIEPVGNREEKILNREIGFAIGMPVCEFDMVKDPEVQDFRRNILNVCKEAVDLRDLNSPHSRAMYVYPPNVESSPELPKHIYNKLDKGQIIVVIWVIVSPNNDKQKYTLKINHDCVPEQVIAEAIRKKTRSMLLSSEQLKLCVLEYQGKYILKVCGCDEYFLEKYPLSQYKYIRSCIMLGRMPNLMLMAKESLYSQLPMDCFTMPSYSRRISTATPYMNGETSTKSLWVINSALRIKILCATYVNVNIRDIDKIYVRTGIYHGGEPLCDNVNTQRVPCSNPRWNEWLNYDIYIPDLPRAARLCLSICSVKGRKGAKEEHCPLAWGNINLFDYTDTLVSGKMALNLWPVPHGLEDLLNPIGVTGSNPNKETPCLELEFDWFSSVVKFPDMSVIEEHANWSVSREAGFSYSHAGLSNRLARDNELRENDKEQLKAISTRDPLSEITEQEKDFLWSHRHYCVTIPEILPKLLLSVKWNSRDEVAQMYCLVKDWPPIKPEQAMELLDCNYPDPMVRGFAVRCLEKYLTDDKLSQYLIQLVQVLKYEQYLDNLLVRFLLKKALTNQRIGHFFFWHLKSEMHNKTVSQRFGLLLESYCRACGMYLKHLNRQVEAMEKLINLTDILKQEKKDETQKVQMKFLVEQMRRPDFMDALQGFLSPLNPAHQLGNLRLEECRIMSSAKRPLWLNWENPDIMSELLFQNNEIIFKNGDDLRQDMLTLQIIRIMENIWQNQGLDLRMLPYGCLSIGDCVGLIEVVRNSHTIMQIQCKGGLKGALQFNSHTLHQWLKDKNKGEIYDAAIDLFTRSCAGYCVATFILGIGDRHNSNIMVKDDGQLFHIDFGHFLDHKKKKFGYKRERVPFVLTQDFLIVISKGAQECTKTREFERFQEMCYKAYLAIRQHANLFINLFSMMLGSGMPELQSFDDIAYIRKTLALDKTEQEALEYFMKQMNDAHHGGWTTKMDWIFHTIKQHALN
Sequence of PIK3CG (human) (P48736 whole entry, looked up): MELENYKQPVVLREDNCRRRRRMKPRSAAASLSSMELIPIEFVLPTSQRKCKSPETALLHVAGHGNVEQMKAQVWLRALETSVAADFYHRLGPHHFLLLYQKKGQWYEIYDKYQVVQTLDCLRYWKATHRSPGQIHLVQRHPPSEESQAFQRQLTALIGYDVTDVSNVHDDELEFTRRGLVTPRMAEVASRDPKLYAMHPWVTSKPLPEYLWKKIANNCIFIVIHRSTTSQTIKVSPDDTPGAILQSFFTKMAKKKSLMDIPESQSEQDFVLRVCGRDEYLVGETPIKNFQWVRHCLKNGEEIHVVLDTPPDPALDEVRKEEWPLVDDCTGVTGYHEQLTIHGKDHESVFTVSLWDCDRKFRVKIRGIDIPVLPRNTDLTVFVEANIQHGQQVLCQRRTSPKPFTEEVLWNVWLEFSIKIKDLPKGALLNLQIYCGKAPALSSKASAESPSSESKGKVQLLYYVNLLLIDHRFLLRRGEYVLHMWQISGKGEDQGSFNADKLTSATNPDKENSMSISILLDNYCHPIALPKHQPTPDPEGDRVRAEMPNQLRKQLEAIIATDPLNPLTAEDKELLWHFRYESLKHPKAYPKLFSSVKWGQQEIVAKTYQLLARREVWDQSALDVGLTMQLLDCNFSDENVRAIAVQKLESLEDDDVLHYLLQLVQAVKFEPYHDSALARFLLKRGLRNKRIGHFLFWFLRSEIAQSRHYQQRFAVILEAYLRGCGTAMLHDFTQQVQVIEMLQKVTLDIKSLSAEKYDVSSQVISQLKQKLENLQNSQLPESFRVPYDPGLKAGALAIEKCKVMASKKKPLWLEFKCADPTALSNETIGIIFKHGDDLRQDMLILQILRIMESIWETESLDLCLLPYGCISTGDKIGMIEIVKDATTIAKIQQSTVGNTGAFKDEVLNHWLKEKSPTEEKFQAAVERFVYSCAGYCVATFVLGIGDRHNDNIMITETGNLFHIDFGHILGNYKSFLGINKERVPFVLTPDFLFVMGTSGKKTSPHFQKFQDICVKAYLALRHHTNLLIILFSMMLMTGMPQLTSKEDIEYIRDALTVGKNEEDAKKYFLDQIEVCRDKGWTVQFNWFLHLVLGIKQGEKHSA
Sequence of PIK3CD (Human) (O00329 whole entry, looked up): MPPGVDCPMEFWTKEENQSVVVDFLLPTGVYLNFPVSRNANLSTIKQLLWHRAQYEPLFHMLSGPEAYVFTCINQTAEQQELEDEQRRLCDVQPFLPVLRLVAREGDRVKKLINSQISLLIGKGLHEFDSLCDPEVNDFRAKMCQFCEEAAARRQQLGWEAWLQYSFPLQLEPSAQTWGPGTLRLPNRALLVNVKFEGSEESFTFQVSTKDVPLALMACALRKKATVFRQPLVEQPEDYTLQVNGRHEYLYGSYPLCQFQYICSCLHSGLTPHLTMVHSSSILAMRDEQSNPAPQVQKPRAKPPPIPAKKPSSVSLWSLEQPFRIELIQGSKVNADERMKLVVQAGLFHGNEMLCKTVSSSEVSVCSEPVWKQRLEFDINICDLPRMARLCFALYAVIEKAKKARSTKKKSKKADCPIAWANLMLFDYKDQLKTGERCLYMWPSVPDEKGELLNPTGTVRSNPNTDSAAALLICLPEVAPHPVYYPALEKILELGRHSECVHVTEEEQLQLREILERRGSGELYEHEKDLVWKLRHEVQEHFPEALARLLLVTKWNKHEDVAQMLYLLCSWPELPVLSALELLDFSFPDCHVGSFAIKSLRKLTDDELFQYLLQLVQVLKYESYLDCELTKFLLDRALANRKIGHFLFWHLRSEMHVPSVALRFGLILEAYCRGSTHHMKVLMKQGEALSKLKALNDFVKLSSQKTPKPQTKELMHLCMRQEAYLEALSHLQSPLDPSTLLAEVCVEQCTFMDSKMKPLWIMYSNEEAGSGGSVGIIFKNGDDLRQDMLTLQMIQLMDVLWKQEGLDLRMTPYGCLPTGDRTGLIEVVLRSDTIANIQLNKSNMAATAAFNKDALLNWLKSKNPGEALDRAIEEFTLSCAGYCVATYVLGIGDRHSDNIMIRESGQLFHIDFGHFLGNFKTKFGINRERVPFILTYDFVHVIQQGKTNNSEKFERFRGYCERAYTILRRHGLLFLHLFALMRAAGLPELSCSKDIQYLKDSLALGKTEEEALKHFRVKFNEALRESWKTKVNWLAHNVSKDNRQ

## N#Cc1c(N)nc(N)nc1N1CCC[C@H]1c1nc2cccc(C(F)(F)F)c2c(=O)n1-c1ccccc1
PIK3CD (Human) [1]
  IC50: 46 nM
PIK3CA (human) [2]
  IC50: 290 nM
PIK3CG (human) [3]
  IC50: 52 nM
PIK3CD (Human) [4]
  IC50: 6 nM
PIK3CA (human) [5]
  IC50: 2370 nM
PIK3CG (human) [6]
  IC50: 35 nM

## Cc1nc(N)nc(N2CCC[C@H]2c2nc3cccc(C(F)(F)F)c3c(=O)n2-c2cccc(F)c2)c1C#N
PIK3CD (Human) [1]
  IC50: 17 nM
PIK3CA (human) [2]
  IC50: 890 nM
PIK3CG (human) [3]
  IC50: 82 nM
PIK3CD (Human) [4]
  IC50: 37 nM
PIK3CA (human) [5]
  IC50: 4440 nM
PIK3CG (human) [6]
  IC50: 164 nM

## CO[C@H]1C[C@@H](c2nc3cccc(Cl)c3c(=O)n2-c2ccccc2)N(c2nc(N)nn3ccnc23)C1
PIK3CD (Human) [1]
  IC50: 140 nM
PIK3CA (human) [2]
  IC50: 7200 nM
PIK3CG (human) [3]
  IC50: 78 nM
PIK3CD (Human) [4]
  IC50: 204 nM
PIK3CA (human) [5]
  IC50: > 10000 nM
PIK3CG (human) [6]
  IC50: 793 nM

## Nc1nc(N2CSC[C@H]2c2nc3cccc(Cl)c3c(=O)n2-c2ccccc2)c2nc[nH]c2n1
PIK3CD (Human) [1]
  IC50: 11 nM
PIK3CA (human) [2]
  IC50: 2300 nM
PIK3CG (human) [3]
  IC50: 23 nM
PIK3CD (Human) [4]
  IC50: 46 nM
PIK3CA (human) [5]
  IC50: 6630 nM
PIK3CG (human) [6]
  IC50: 119 nM

## Cc1ccccc1-n1c([C@@H]2CCCN2c2ncnc(N)c2C#N)nc2cccc(Cl)c2c1=O
PIK3CD (Human) [1]
  IC50: < 3 nM
PIK3CA (human) [2]
  IC50: 5210 nM
PIK3CG (human) [3]
  IC50: 70 nM
PIK3CD (Human) [4]
  IC50: 13 nM
PIK3CA (human) [5]
  IC50: 2200 nM
PIK3CG (human) [6]
  IC50: 27 nM

— the Kinase Knowledgebase extract (Sharma et al. 2016)
